According to patent US20040023884A1, “Biologically active peptides from functional domains of bactericidal/permeability-increasing protein and uses thereof” (priority 1993, published 2004):
Square brackets hold non-standard residues; d marks the D form. Ends that are not written are not given here. Peptide text beside a SMILES is read from it. 1Nal = N[C@@H](Cc1cccc2ccccc12)C(=O)O

Tests used:
Candida albicans = type: cell-based
RAW 264.7 cells = experiment: LPS neutralization cellular proliferation assay, RAW 264.7 cells; type: cell-based, mouse
Method: In this assay, mouse RAW 264.7 cells (ATCC Accession No. T1B71), maintained in RPMI 1640 media (GIBCO), supplemented with 10 mM HEPES buffer (pH 7.4), 2 mM L-glutamine, penicillin (100U/mL), streptomcin (100 μg/mL), 0.075% sodium bicarbonate, […] 2-mercaptoethanol and 10% fetal bovine serum (Hyclone, Inc., Logan, Utah), were first induced by incubation in the presence of 50U/mL recombinant mouse y-interferon (Genzyme, Cambridge, Mass.) for 24 h prior to assay. Induced cells were then mechanically collected and centrifuged at 500×g at 4° C. and then resuspended in 50 mL RPMI 1640 media (without supplements), re-centrifuged and again resuspended in RPMI 1640 media (without supplements). The cells were counted and their concentration adjusted to 2×10^5 cells/mL and 100 μL aliquots were added to each well of a 96-well microtitre plate. The cells were then incubated for about 15 hours with E. coli O113 LPS (Control Standard. Assoc. of Cape Cod. Woods Hole, Mass.), which was added in 100 μL/well aliquots at a concentration of […] in serum-free RPMI 1640 media (this concentration being the result of titration experiments in which LPS concentration was varied between 50 pg/mL and 100 ng/mL). This incubation was performed in the absence or presence of BPI functional domain peptides in varying concentrations between 25 ng/mL and 50 μg/mL. Recombinant human BPI was used as a positive control at a concentration of 1 μg/mL. Cell proliferation was quantitatively measured by the addition of 1 μCi/well [^3H]-thymidine 5 hours after the time of initiation of the assay. After the 15-hour incubation, labeled cells were harvested onto glass fiber filters with a cell harvester (Inotech Biosystems, EQ-384, Sample Processing and Filter Counting System, Lansing, Mich.).

[1] = system: rough mutant E. coli J5 bacteria; experiment: Radial diffusion bactericidal assay, E. coli J5; type: cell-based; details: for bactericidal activity (in words) / pmol added to well to achieve a 30 mm^2 bactericidal zone, E. coli J5: radial diffusion; for bactericidal activity (in words): E. coli J5; for pmol added to well to achieve a 30 mm^2 bactericidal zone, E. coli J5: PROBIT analysis, E. coli J5 (rough); for activity of position 95 substitution variants (in words): activity not further specified
How it was run: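 Wells received 5 or 10 μL of BPI fragment, pre-incubated 3 h at 37 °C. The underlayer agarose carried washed log-phase organisms at 4×10^6 CFU/mL.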

[2] = 3H-heparin binding assay (affinity and capacity); details: for Heparin Capacity: heparin bound at saturation; for Kd: read-out: Heparin Affinity
How it was run: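 Peptide fragments were bound to PVDF-membrane wells and incubated with 3H-heparin in blocking buffer for 1 h at 4 °C. After washing, bound radioactivity was quantified by liquid scintillation counting, with BSA background subtracted; rBPI23 served as positive control.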

Staphylococcus aureus = experiment: Radial diffusion bactericidal assay, Staphylococcus aureus; type: cell-based; details: radial diffusion; PROBIT analysis; S. aureus
[3] = system: E. coli 0111:B4 (smooth) bacteria; experiment: Radial diffusion bactericidal assay, E. coli 0111:B4; type: cell-based; details: radial diffusion; PROBIT analysis; E. coli O111:B4 (smooth)
C. albicans = experiment: Radial diffusion fungicidal assay, Candida albicans; type: cell-based; details: radial diffusion

| Compound | MIC C. alb (Candida albicans) | EC50 (peptide concentration at which the growth inhibitory effect of LPS was reversed by 50%) (RAW 264.7 cells) | IC50 (peptide concentration at which RAW cell growth was inhibited by 50%) (RAW 264.7 cells) | bactericidal activity (in words) [1] | pmol added to well to achieve a 30 mm^2 bactericidal zone, E. coli J5 [1] | heparin binding capacity (in words) [2] | Heparin Capacity [2] | Kd [2] | pmol added to well to achieve a 30 mm^2 bactericidal zone, S. aureus (Staphylococcus aureus) | pmol added to well to achieve a 30 mm^2 bactericidal zone, E. coli O111:B4 [3] | C. albicans: pmol required for 30 mm^2 zone (C. albicans) | behaviour in the RAW 264.7 proliferation assay (in words) (RAW 264.7 cells) | activity of position 95 substitution variants (in words) [1] |
| --- | --- | --- | --- | --- | --- | --- | --- | --- | --- | --- | --- | --- | --- |
| CC(C)C[C@H](NC(=O)[C@H](Cc1ccccc1)NC(=O)[C@H](CCCNC(=N)N)NC(=O)[C@H](Cc1cccc2ccccc12)NC(=O)[C@H](Cc1cccc2ccccc12)NC(=O)[C@H](C)NC(=O)[C@H](CCCCN)NC(=O)[C@H](Cc1c[nH]c2ccccc12)NC(=O)[C@H](CCCCN)NC(=O)[C@H](CCCCN)NC(=O)[C@H](CC(C)C)NC(=O)[C@H](Cc1ccccc1)NC(=O)[C@H](CCCNC(=N)N)NC(=O)[C@H](Cc1cccc2ccccc12)NC(=O)[C@H](Cc1cccc2ccccc12)NC(=O)[C@H](C)NC(=O)[C@H](CCCCN)NC(=O)[C@H](Cc1c[nH]c2ccccc12)NC(=O)[C@H](CCCCN)NC(=O)[C@H](CCCCN)NC(=O)[C@H](CC(C)C)NC(=O)[C@H](Cc1ccccc1)NC(=O)[C@H](CCCNC(=N)N)NC(=O)[C@H](Cc1cccc2ccccc12)NC(=O)[C@H](Cc1cccc2ccccc12)NC(=O)[C@H](C)NC(=O)[C@H](CCCCN)NC(=O)[C@H](Cc1c[nH]c2ccccc12)NC(=O)[C@@H](N)CCCCN)C(=O)N[C@@H](CCCCN)C(=O)O [BPI.157] (H-KWKA[1Nal][1Nal]RFLKKWKA[1Nal][1Nal]RFLKKWKA[1Nal][1Nal]RFLK-OH; N-terminus and C-terminus assumed) | >100.00 µg/mL | comparable to BPI.29 | lower IC5 | – | – | – | – | – | – | – | – | – | – |
| CC[C@H](C)[C@H](N)C(=O)N[C@@H](CCCCN)C(=O)N[C@H](C(=O)N[C@@H](CO)C(=O)NCC(=O)N[C@@H](CCCCN)C(=O)N[C@@H](Cc1c[nH]c2ccccc12)C(=O)N[C@@H](CCCCN)C(=O)N[C@@H](C)C(=O)N[C@@H](CCC(N)=O)C(=O)N[C@@H](CCCCN)C(=O)N[C@@H](CCCNC(=N)N)C(=O)N[C@@H](Cc1ccccc1)C(=O)N[C@@H](CC(C)C)C(=O)N[C@@H](CCCCN)C(=O)NCCCC[C@H](NC(=O)[C@H](CCCCN)NC(=O)[C@H](CC(C)C)NC(=O)[C@H](Cc1ccccc1)NC(=O)[C@H](CCCNC(=N)N)NC(=O)[C@H](CCCCN)NC(=O)[C@H](CCC(N)=O)NC(=O)[C@H](C)NC(=O)[C@H](CCCCN)NC(=O)[C@H](Cc1c[nH]c2ccccc12)NC(=O)[C@H](CCCCN)NC(=O)CNC(=O)[C@H](CO)NC(=O)[C@@H](NC(=O)[C@H](CCCCN)NC(=O)[C@@H](N)[C@@H](C)CC)[C@@H](C)CC)C(=O)NCCCC[C@H](NC(=O)[C@H](CCCCNC(=O)[C@H](CCCCN)NC(=O)[C@H](CC(C)C)NC(=O)[C@H](Cc1ccccc1)NC(=O)[C@H](CCCNC(=N)N)NC(=O)[C@H](CCCCN)NC(=O)[C@H](CCC(N)=O)NC(=O)[C@H](C)NC(=O)[C@H](CCCCN)NC(=O)[C@H](Cc1c[nH]c2ccccc12)NC(=O)[C@H](CCCCN)NC(=O)CNC(=O)[C@H](CO)NC(=O)[C@@H](NC(=O)[C@H](CCCCN)NC(=O)[C@@H](N)[C@@H](C)CC)[C@@H](C)CC)NC(=O)[C@H](CCCCN)NC(=O)[C@H](CC(C)C)NC(=O)[C@H](Cc1ccccc1)NC(=O)[C@H](CCCNC(=N)N)NC(=O)[C@H](CCCCN)NC(=O)[C@H](CCC(N)=O)NC(=O)[C@H](C)NC(=O)[C@H](CCCCN)NC(=O)[C@H](Cc1c[nH]c2ccccc12)NC(=O)[C@H](CCCCN)NC(=O)CNC(=O)[C@H](CO)NC(=O)[C@@H](NC(=O)[C@H](CCCCN)NC(=O)[C@@H](N)[C@@H](C)CC)[C@@H](C)CC)C(=O)NCCC(=O)O)[C@@H](C)CC [MAP.1, β-alanyl-Nα,Nε-substituted-{Nα,Nε(BPI.2)lysyl}lysine] | – | 0.45 ± 0.1 µg/mL | – | highly bactericidal | 105.71 pmol | extremely high heparin capacity | 459.1 ng | 937 nM | 1,382.60 pmol | 552.79 pmol | – | – | – |
| CKSKVGWLIQLFHKKC [BPI.137] | – | – | – | – | 1,390.00 pmol | – | – | – | b (no detectable activity up to 5 μg/well) | 87,980.00 pmol | >2285.73 pmol | – | – |
| IKISGKWKAFKRFLK [BPI.81] | – | – | 14 ± 0.2 µg/mL | – | 283.84 pmol | – | 318.4 ng | 335 nM | 9,477.20 pmol | 3,018.90 pmol | – | unable to reverse the growth inhibitory effect of LPS | – |
| IKISGKWKAQFDRFLK [BPI.76] | – | >50 µg/mL | — (No proliferation decrease up to 50 μg/ml) | – | 10,519.55 pmol | – | 144.4 ng | 128 nM | b (no detectable activity up to 5 μg/well) | b (no detectable activity up to 5 μg/well) | – | – | dramatically reduced activity, to levels lower than the original peptide (BPI.2) |
| IKISGKWKAQFRFLK [BPI.73] | – | 22 ± 10 µg/mL | — (No proliferation decrease up to 50 μg/ml) | highly bactericidal | 57.28 pmol | extremely high heparin capacity | 413.4 ng | 227 nM | 2,313,133.50 pmol | 3,290.60 pmol | – | – | improved activity compared with the alanine substitution species |
| IKISGKWKAQWRFLK [BPI.77] | – | 10 ± 32 µg/mL | >50 µg/mL | – | 455.08 pmol | – | 581.7 ng | 302 nM | 1,684.35 pmol | b (no detectable activity up to 5 μg/well) | – | – | – |
| KWAFAKKQKKRLKRQWLKKF [BPI.150] | – | – | – | – | 220.00 pmol | – | – | – | b (no detectable activity up to 5 μg/well) | 3,610.00 pmol | >2380.67 pmol | – | – |
| KWKAAARFLKKSKVGWLIQLFHKK [BPI.145] | – | – | – | – | 250.00 pmol | – | – | – | b (no detectable activity up to 5 μg/well) | 9,561.00 pmol | >1886.58 pmol | – | – |
| KWKAAARFLKKWKAQKRFLK [BPI.46] | – | 1.9 ± 1.9 µg/mL | 18.8 ± 0.8 µg/mL | highly bactericidal | 186.69 pmol | extremely high heparin capacity | 321.1 ng | 1070 nM | 3,810,752.30 pmol | 2,970.26 pmol | – | – | – |
